Test results: patent US20160200733A1, “SUBSTITUTED THIENO[2,3-B]PYRIDINE-2-CARBOXAMIDE ANALOGS AS POSITIVE ALLOSTERIC MODULATORS OF THE MUSCARINIC ACETYLCHOLINE RECEPTOR M4” (Vanderbilt University, priority 2013, published 2016)

Target: T1, mAChR hM4 (Homo sapiens, UniProt P08173)
T1 construct: expressed in transfected cells; host or cells: CHO-K1 (Chinese hamster ovary) cells
T1 sequence (P08173 1-479): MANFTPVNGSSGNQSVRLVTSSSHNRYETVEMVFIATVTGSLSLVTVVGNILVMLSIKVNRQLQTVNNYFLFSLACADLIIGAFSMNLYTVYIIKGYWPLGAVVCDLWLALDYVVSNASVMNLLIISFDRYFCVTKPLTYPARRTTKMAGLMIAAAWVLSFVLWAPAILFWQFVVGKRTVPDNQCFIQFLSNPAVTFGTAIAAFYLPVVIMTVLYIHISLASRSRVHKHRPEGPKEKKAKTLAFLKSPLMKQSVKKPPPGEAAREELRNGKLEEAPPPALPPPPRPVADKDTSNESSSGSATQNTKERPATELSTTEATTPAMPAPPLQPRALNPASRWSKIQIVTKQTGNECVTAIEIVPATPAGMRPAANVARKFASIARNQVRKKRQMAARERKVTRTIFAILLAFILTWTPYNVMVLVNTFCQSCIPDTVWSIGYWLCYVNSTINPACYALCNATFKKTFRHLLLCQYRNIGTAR
Test: mAChR M4 cell-based functional assay (calcium flux, potentiation of EC20 acetylcholine response)
Conditions: mAChR hM4 cell-line; for EC50: >10,000 estimated for low potency compounds lacking a plateau; for Emax at 30 µM: % ACh maximum at 30 μM
Method in brief: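 CHO-K1 cells expressing human M4, loaded with Fluo-4 Ca2+ dye; potentiation of an EC20 acetylcholine response read as increase in fluorescence static ratio. EC50 and Emax from concentration-dependent increase over the EC20 response.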

| SMILES | EC50 [µM] | Emax at 30 µM [%] |
| --- | --- | --- |
| Cc1nc2sc(C(=O)NC3COC3)c(-c3ccc4nccnc4c3)c2c(C)c1Cl [Compound 116, 5-chloro-4,6-dimethyl-N-(oxetan-3-yl)-3-(quinoxalin-6-yl)thieno[2,3-b]pyridine-2-carboxamide] | > 10 | – |
| Cc1nc2sc(C(=O)NC3COC3)c(-c3ccsc3)c2c(C)c1Cl [Compound 117, 5-chloro-4,6-dimethyl-N-(oxetan-3-yl)-3-(thiophen-3-yl)thieno[2,3-b]pyridine-2-carboxamide] | > 10 | – |
| Cc1nc2sc(C(=O)NC3CC3)c(Cl)c2c(C)c1Cl [Compound 118, 3,5-dichloro-N-cyclopropyl-4,6-dimethylthieno[2,3-b]pyridine-2-carboxamide] | 1.5 | 56 |
| Cc1nc2sc(C(=O)NCC3CC3)c(Cl)c2c(C)c1Cl [Compound 119, 3,5-dichloro-N-(cyclopropylmethyl)-4,6-dimethylthieno[2,3-b]pyridine-2-carboxamide] | > 10 | – |
| Cc1nc2sc(C(=O)N[C@@H](C)C3CC3)c(Cl)c2c(C)c1Cl [Compound 120, (S)-3,5-dichloro-N-(1-cyclopropylethyl)-4,6-dimethylthieno[2,3-b]pyridine-2-carboxamide] | > 10 | – |
| Cc1nc2sc(C(=O)N[C@H](C)C3CC3)c(Cl)c2c(C)c1Cl [Compound 121, (R)-3,5-dichloro-N-(1-cyclopropylethyl)-4,6-dimethylthieno[2,3-b]pyridine-2-carboxamide] | > 10 | – |
| Cc1nc2sc(C(=O)NC3(C)COC3)c(Cl)c2c(C)c1Cl [Compound 122, 3,5-dichloro-4,6-dimethyl-N-(3-methyloxetan-3-yl)thieno[2,3-b]pyridine-2-carboxamide] | 2.6 | 61 |
| Cc1nc2sc(C(=O)NC3CCC3)c(Cl)c2c(C)c1Cl [Compound 123, 3,5-dichloro-N-cyclobutyl-4,6-dimethylthieno[2,3-b]pyridine-2-carboxamide] | > 10 | 34 |

Second part, the compound after the results:

| EC50 [µM] | Emax at 30 µM [%] | SMILES |
| --- | --- | --- |
| 1.2 | 43 | Cc1nc2sc(C(=O)NC3CCOC3)c(Cl)c2c(C)c1Cl (centres unmarked) [Compound 124, 3,5-dichloro-4,6-dimethyl-N-(tetrahydrofuran-3-yl)thieno[2,3-b]pyridine-2-carboxamide] |
| > 10 | – | Cc1nc2sc(C(=O)NCC3(C)COC3)c(Cl)c2c(C)c1Cl [Compound 125, 3,5-dichloro-4,6-dimethyl-N-((3-methyloxetan-3-yl)methyl)thieno[2,3-b]pyridine-2-carboxamide] |
| 0.53 | 67 | Cc1nc2sc(C(=O)NC3COC3)c(Cl)c2c(C)c1Cl [Compound 126, 3,5-dichloro-4,6-dimethyl-N-(oxetan-3-yl)thieno[2,3-b]pyridine-2-carboxamide] |
| > 10 | 35 | Cc1nc2sc(C(=O)NC3[C@H]4C[C@@H]3C4)c(Cl)c2c(C)c1Cl (some centres unmarked) [Compound 127, N-((1s,3s)-bicyclo[1.1.1]pentan-2-yl)-3,5-dichloro-4,6-dimethylthieno[2,3-b]pyridine-2-carboxamide] |
| > 10 | 33 | Cc1nc2sc(C(=O)NC3CC(F)(F)C3)c(Cl)c2c(C)c1Cl [Compound 128, 3,5-dichloro-N-(3,3-difluorocyclobutyl)-4,6-dimethylthieno[2,3-b]pyridine-2-carboxamide] |
| > 10 | – | Cc1nc2sc(C(=O)NCC3CCC3)c(Cl)c2c(C)c1Cl [Compound 129, 3,5-dichloro-N-(cyclobutylmethyl)-4,6-dimethylthieno[2,3-b]pyridine-2-carboxamide] |
| > 10 | – | Cc1cc(C)c2c(Br)c(C(=O)NC(C)C)sc2n1 [Example 1, 3-bromo-N-isopropyl-4,6-dimethylthieno[2,3-b]pyridine-2-carboxamide] |
| 3.3 | 68 | Cc1cc(C)c2c(Br)c(C(=O)NC3COC3)sc2n1 [Example 2, 3-bromo-4,6-dimethyl-N-(oxetan-3-yl)thieno[2,3-b]pyridine-2-carboxamide] |
| 3.9 | 44 | Cc1cc(C)c2c(Br)c(C(=O)N3CCCC3)sc2n1 [Example 3, (3-bromo-4,6-dimethylthieno[2,3-b]pyridin-2-yl)(pyrrolidin-1-yl)methanone] |
